According to patent US10219516B2, “Molecules having pesticidal utility, and intermediates, compositions, and processes, related thereto” (priority 2015, dated 2019):
Where two headings read alike, the source gives them in different places.

Legend:
Type in all cases: in vivo
[1] = tested on: Green Peach Aphid (Myzus persicae, MYZUPE); test: Bioassay on Green Peach Aphid (GPA), foliar spray on infested cabbage seedlings; details: 72 h, Green Peach Aphid, foliar spray on cabbage seedlings, read-out: GPA rating
Description: Certain molecules disclosed in this document were tested against GPA using procedures described in the following example. In the reporting of the results, the “GPA & YFM Rating Table” was used (See Table Section).
Cabbage seedlings grown in 3-inch pots, with 2-3 small (3-5 cm) true leaves, were used as test substrate. The seedlings were infested with 20-50 GPA (wingless adult and nymph stages) one day prior to chemical application. Four pots with individual seedlings were used for each treatment. Test molecules (2 mg) were dissolved in 2 mL of acetone/methanol (1:1) solvent, forming stock solutions of 1000 ppm test molecule. The stock solutions were diluted 5× with 0.025% Tween 20 in water to obtain the solution at 200 ppm test molecule. A hand-held aspirator-type sprayer was used for spraying a solution to both sides of […] leaves until runoff. Reference plants (solvent check) were sprayed with the diluent only containing 20% by volume of acetone/methanol (1:1) solvent. Treated plants were held in a holding room for three days at approximately 25° C. and ambient relative humidity (RH) prior to grading. Evaluation was conducted by counting the number of live aphids per plant under a microscope. Percent control was measured using Abbott's correction formula (W. S. Abbott, “A Method of Computing the Effectiveness of an Insecticide” 3. Econ. Entomol. 18 (1925), pp. 265-267) as follows. Corrected % Control=100*(X−Y)/X where X=No. of live aphids on solvent check plants and Y=No. of live aphids on treated plants. The results are indicated in the table entitled “Table ABC: Biological Results” (See Table Section).

[2] = tested on: Cabbage Looper (Trichoplusia ni, TRIPNI); test: Bioassay on Cabbage Looper (CL), 128-well diet tray assay; details: Trichoplusia ni
Procedure, shortened: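 Percent mortality, averaged across eight replicate wells, was scored after five to seven days at 25° C. under a 14:10 light-dark cycle. Each well held one to five second instar larvae on artificial diet treated at 50 μg/cm^2 with compound from 90:10 acetone-water, allowed to dry before infestation.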

[3] = tested on: Yellow Fever Mosquito (Aedes aegypti, AEDSAE); test: Bioassay on Yellow Fever Mosquito (YFM), 96-well plate larval assay; details: for YFM rating: Yellow Fever Mosquito, 96-well plate larval assay; for YFM (Biological Results, rating): Species YFM (Yellow Fever Mosquito)
Procedure, shortened: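 Compound stocks at 4000 ppm in DMSO were diluted with 90:10 water/acetone, and 15 μL aliquots were dispensed into six replicate plates. About 1-day-old larvae in liver-powder water were added per well. Plates were covered and held at room temperature for 3 days before each well was scored for mortality.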

[4] = tested on: Beet Armyworm (Spodoptera exigua, LAPHEG); test: Bioassay on Beet Armyworm (BAW), 128-well diet tray assay
Procedure, shortened: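 Second-instar larvae, one to five per well, placed on artificial diet surface-treated with 50 μg/cm^2 compound applied in 90:10 acetone-water and dried. Held 5–7 days at 25° C., 14:10 light-dark. Percent mortality recorded per well and averaged over eight wells.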

[5] = Cabbage Looper, 128-well diet tray assay, read-out: CL rating
[6] = Beet Armyworm, 128-well diet tray assay, read-out: BAW rating
[7] = Species CL (Cabbage Looper), read-out: CL (Biological Results, rating)
[8] = Species BAW (Beet Armyworm), read-out: BAW (Biological Results, rating)

| SMILES | pest or weed control at 200 µg/mL [1] [%] | pest or weed control at 50 µg/cm2 [2, 5] [%] | YFM rating [3] | pest or weed control at 50 µg/cm2 [4, 6] [%] | pest or weed control at 50 µg/cm2 [2, 7] [%] | YFM (Biological Results, rating) [3] | pest or weed control at 50 µg/cm2 [4, 8] [%] |
| --- | --- | --- | --- | --- | --- | --- | --- |
| CC(C)(C)OC(=O)Nc1cc(C(F)(F)F)cc(NC(=O)c2cc(NC(=O)[C@H]3[C@H](c4cc(Cl)cc(Cl)c4)C3(Cl)Cl)ccc2Cl)n1 (relative stereo) [F507, tert-Butyl (6-(2-chloro-5-(trans-2,2-dichloro-3-(3,5-dichlorophenyl)cyclopropane-1-carboxamido)benzamido)-4-(trifluoromethyl)pyridin-2-yl)carbamate] | 0 to 80 |  |  |  |  |  |  |
| O=C(Nc1ccc(-c2nccs2)cc1)c1cc(NC(=O)[C@H]2[C@H](c3cc(Cl)cc(Cl)c3)C2(Cl)Cl)ccc1Cl (relative stereo) [F461, trans-2-Chloro-5-(2,2-dichloro-3-(3,5-dichlorophenyl)cyclopropane-1-carboxamido)-N-(4-(thiazol-2-yl)phenyl)benzamide] |  | 50 to 100 | A (80-100) | 50 to 100 |  |  |  |
| O=C(Nc1cc2[nH]ccc2cc1Br)c1cc(NC(=O)C2C(c3cc(Cl)cc(Cl)c3)C2(Cl)Cl)ccc1Cl (stereo not drawn) [F172, N-(5-Bromo-1H-indol-6-yl)-2-chloro-5-(trans)-2,2-dichloro-3-(3,5-dichlorophenyl)cyclopropane-1-carboxamido)benzamide] |  |  |  |  | 50 to 100 | B (More than 0-Less than 80) | 50 to 100 |
| O=C(Nc1ccc2c(c1)CCN2)c1cc(NC(=O)[C@H]2[C@H](c3cc(Cl)cc(Cl)c3)C2(Cl)Cl)ccc1Cl (relative stereo) [F511, 2-Chloro-5-(trans)-(2,2-dichloro-3-(3,5-dichlorophenyl)cyclopropane-1-carboxamido)-N-(indolin-5-yl)benzamide] |  | 50 to 100 | A (80-100) | 50 to 100 |  |  |  |
| Nc1cc(F)c(NC(=O)c2cc(NC(=O)[C@H]3[C@H](c4ccc(Cl)c(Cl)c4)C3(Cl)Cl)ccc2Cl)cc1F [F569, trans-N-(4-Amino-2,5-difluorophenyl)-2-chloro-5-((1R,3R)-2,2-dichloro-3-(3,4-dichlorophenyl)cyclopropane-1-carboxamido)benzamide] |  | 50 to 100 | A (80-100) | 50 to 100 |  |  |  |
| O=C(Nc1ccncn1)c1cc(NC(=O)[C@H]2[C@H](c3cc(Cl)cc(Cl)c3)C2(Cl)Cl)ccc1Cl (relative stereo) [F296, trans-2-Chloro-5-(2,2-dichloro-3-(3,5-dichlorophenyl)cyclopropane-1-carboxamido)-N-(pyrimidin-4-yl)benzamide] |  |  |  |  | 50 to 100 | A (80-100) | 50 to 100 |
| CC1(c2cc(Cl)cc(Cl)c2)C(C(=O)Nc2ccc(Cl)c(C(=O)Nc3ccc(F)cc3F)c2)C1(Cl)Cl (stereo not drawn) [F252, 2-Chloro-5-trans-(2,2-dichloro-3-(3,5-dichlorophenyl)-3-methylcyclopropane-1-carboxamido)-N-(2,4-difluorophenyl)benzamide] |  |  |  |  | 50 to 100 | A (80-100) | 50 to 100 |
| Cn1ncc2cc(NC(=O)c3cc(NC(=O)[C@H]4[C@H](c5cc(Cl)cc(Cl)c5)C4(Cl)Cl)ccc3Cl)cnc21 (relative stereo) [F476, 2-Chloro-5-(trans)-(2,2-dichloro-3-(3,5-dichlorophenyl)cyclopropane-1-carboxamido)-N-(1-methyl-1H-pyrazolo[3,4-b]pyridin-5-yl)benzamide] |  | 50 to 100 | A (80-100) | 50 to 100 |  |  |  |
| O=C(Nc1nc2ccccc2s1)c1cc(NC(=O)C2C(c3cc(Cl)cc(Cl)c3)C2(Cl)Cl)ccc1Cl (stereo not drawn) [F441, N-(Benzo[d]thiazol-2-yl)-2-chloro-5-(trans)-2,2-dichloro-3-(3,5-dichlorophenyl)cyclopropane-1-carboxamido)benzamide] |  | 50 to 100 | B (More than 0-Less than 80) | 50 to 100 |  |  |  |
| Cc1cc(F)ccc1NC(=O)c1cccc(NC(=O)[C@H]2[C@H](c3cc(Cl)cc(Cl)c3)C2(Cl)Cl)c1 (relative stereo) [F272, trans-3-(2,2-Dichloro-3-(3,5-dichlorophenyl)cyclopropane-1-carboxamido)-N-(4-fluoro-2-methylphenyl)benzamide] |  |  |  |  | 50 to 100 | A (80-100) | 50 to 100 |
| Cn1ccc2cc(NC(=O)c3cc(NC(=O)[C@H]4[C@H](c5cc(Cl)cc(Cl)c5)C4(Cl)Cl)ccc3Cl)cnc21 (relative stereo) [F464, 2-Chloro-5-(trans)-(2,2-dichloro-3-(3,5-dichlorophenyl)cyclopropane-1-carboxamido)-N-(1-methyl-1H-pyrrolo[2,3-b]pyridin-5-yl)benzamide] |  | 50 to 100 | A (80-100) | 50 to 100 |  |  |  |
| CN(C(=O)c1cc(NC(=O)[C@H]2[C@H](c3ccc(C(F)F)cc3)C2(Cl)Cl)ccc1Cl)c1ccc(F)cc1 (relative stereo) [F599, 2-Chloro-5-(trans-2,2-dichloro-3-(4-(difluoromethyl)phenyl)cyclopropane-1-carboxamido)-N-(4-fluorophenyl)-N-methylbenzamide] |  | 50 to 100 | A (80-100) | 50 to 100 |  |  |  |
| O=C(Nc1ccc(NC(=O)C2CC2)cc1)c1cc(NC(=O)[C@H]2[C@H](c3cc(Cl)cc(Cl)c3)C2(Cl)Cl)ccc1Cl (relative stereo) [PF107, trans-2-Chloro-N-(4-(cyclopropane-1-carboxamido)phenyl)-5-(2,2-dichloro-3-(3,5-dichlorophenyl)cyclopropane-1-carboxamido)benzamide] |  | 50 to 100 | A (80-100) | 50 to 100 |  |  |  |
| O=C(Nc1ccc(F)cc1)c1cc(NC(=O)[C@H]2[C@H](c3cccc(C(F)(F)F)c3)C2(Cl)Cl)ccc1Cl (relative stereo) [F56, trans-2-Chloro-5-(2,2-dichloro-3-(3-(trifluoromethyl)phenyl)cyclopropane-1-carboxamido)-N-(4-fluorophenyl)benzamide] |  |  |  |  | 50 to 100 | B (More than 0-Less than 80) | 50 to 100 |
| O=C(Nc1nc2ccc(F)cc2s1)c1cc(NC(=O)C2C(c3cc(Cl)cc(Cl)c3)C2(Cl)Cl)ccc1Cl (stereo not drawn) [F445, 2-Chloro-5-(trans)-2,2-dichloro-3-(3,5-dichlorophenyl)cyclopropane-1-carboxamido)-N-(6-fluorobenzo[d]thiazol-2-yl)benzamide] |  | 50 to 100 | B (More than 0-Less than 80) | 50 to 100 |  |  |  |
| O=C(Nc1ccc2c(c1)C(=O)N(c1ccc(F)cc1)C2=O)c1cc(NC(=O)[C@H]2[C@H](c3cc(Cl)cc(Cl)c3)C2(Cl)Cl)ccc1Cl (relative stereo) [F504, 2-Chloro-5-(trans)-(2,2-dichloro-3-(3,5-dichlorophenyl)cyclopropane-1-carboxamido)-N-(2-(4-fluorophenyl)-1,3-dioxoisoindolin-5-yl)benzamide] |  | 50 to 100 | A (80-100) | 50 to 100 |  |  |  |
| O=C(Nc1ccc(F)cc1F)c1cc(NC(=O)[C@H]2[C@H](c3ccc(C(F)F)cc3)C2(Cl)Cl)ccc1Cl (relative stereo) [F565, 2-Chloro-5-(trans-2,2-dichloro-3-(4-(difluoromethyl)phenyl)cyclopropane-1-carboxamido)-N-(2,4-difluorophenyl)benzamide] |  | 50 to 100 | A (80-100) | 50 to 100 |  |  |  |
| O=C(Nc1ccc(F)cc1)c1cc(NC(=O)[C@H]2[C@H](c3cc(Cl)cc(Cl)c3)C2(Cl)Cl)cc(Cl)c1Cl (relative stereo) [F216, trans-2,3-Dichloro-5-(2,2-dichloro-3-(3,5-dichlorophenyl)cyclopropane-1-carboxamido)-N-(4-fluorophenyl)benzamide] |  |  |  |  | 50 to 100 | B (More than 0-Less than 80) | 50 to 100 |
